Results published in US20260055102A1 (Redx Pharma Limited, priority 2022, published 2026).

Legend:
[1] = biological target: Recombinant human DDR2 (aa427-855 containing a GST tag) (Homo sapiens (Human), UniProt Q16832); assay: LanthaScreen Eu Kinase Binding Assay DDR2; conditions: Kinase Tracer 178 10 nM, at least two independent replicates; for IC50: read-out: DDR2 pIC50 (converted)
Experimental: (§1) DDR1 and DDR2 Biochemical Assay Method The capacity of compounds to bind to DDR1 and DDR2 was quantified using a LanthaScreen Eu Kinase Binding Assay. Recombinant human DDR1 (2.5 nM; aa440-876 containing a GST tag) and DDR2 (1.75 nM; aa427-855 containing a GST tag) were diluted in assay buffer (50 mM HEPES pH7.3, 10 mM MgCl2, 1 mM EGTA and 0.01% Tween) with various concentrations of compound in a 384-well plate and a volume of 5 uL. After a 30-minute incubation at room temperature, 2.5 uL of Eu-anti GST antibody (diluted to 1 nM in assay buffer) plus Kinase Tracer 178 (diluted in assay buffer to 5 nM for DDR1 and 10 nM for DDR2) were added to the plate. Following 60-minute incubation at room temperature, time-resolved fluorescence was measured on a BMG Labtech PHERAstar plate reader. DMSO (1%) and reference compound (1 μM) were used to generate the Max and Min assay signals, respectively. Data was analysed using a four-parameter logistic model to calculate IC50 values, with at least two independent replicates were performed for each compound.

[2] = biological target: Recombinant human DDR1 (aa440-876 containing a GST tag) (Homo sapiens (Human), UniProt Q08345); assay: LanthaScreen Eu Kinase Binding Assay DDR1; conditions: Kinase Tracer 178 5 nM, at least two independent replicates; for IC50: read-out: DDR1 pIC50 (converted)
Sequence of Recombinant human DDR1 (aa440-876 containing a GST tag) (Q08345 other isoform, or with tags, fused parts or gaps): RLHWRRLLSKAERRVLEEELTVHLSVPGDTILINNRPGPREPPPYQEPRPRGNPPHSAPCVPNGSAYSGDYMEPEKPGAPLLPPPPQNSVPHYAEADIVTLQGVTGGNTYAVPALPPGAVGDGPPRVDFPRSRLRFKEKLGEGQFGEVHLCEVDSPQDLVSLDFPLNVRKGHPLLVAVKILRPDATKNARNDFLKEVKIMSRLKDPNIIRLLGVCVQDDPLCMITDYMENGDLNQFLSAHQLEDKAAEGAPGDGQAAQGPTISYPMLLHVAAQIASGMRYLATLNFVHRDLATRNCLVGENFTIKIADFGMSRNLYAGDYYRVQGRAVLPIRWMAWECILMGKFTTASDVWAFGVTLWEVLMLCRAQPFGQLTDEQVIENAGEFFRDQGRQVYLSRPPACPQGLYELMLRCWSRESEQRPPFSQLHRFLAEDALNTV
Experimental: as §1

Sequence of Recombinant human DDR2 (aa427-855 containing a GST tag) (Q16832 427-855): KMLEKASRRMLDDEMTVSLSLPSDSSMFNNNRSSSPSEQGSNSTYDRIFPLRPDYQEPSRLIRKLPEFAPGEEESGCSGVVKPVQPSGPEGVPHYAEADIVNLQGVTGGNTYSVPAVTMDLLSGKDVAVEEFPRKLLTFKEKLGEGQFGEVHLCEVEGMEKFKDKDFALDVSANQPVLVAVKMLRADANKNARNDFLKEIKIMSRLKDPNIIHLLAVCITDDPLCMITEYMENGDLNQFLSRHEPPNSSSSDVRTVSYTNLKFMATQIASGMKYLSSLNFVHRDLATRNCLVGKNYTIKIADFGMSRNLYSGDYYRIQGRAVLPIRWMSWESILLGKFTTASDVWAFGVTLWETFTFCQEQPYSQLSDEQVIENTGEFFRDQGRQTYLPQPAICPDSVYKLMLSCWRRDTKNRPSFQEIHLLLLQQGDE

Row | SMILES | IC50 [1] [nM] | IC50 [2] [nM] | DDR2 pIC50 [1] | DDR1 pIC50 [2]
1 | Cn1ncc2c(-c3ccc(-n4c(=O)n(CC(=O)NCC(F)(F)F)c5ccccc54)cc3F)cncc21 [Example 4, 2-[3-[3-fluoro-4-(1-methylpyrazolo[3,4-c]pyridin-4-yl)phenyl]-2-oxobenzimidazol-1-yl]-N-(2,2,2-trifluoroethyl)acetamide] |  | 10 to 100 | D (pIC50≤6) | 
2 | Cc1cccc2c1n(-c1ccc(-c3cncc4c3cnn4C)cc1)c(=O)n2CC(=O)N[C@@H](C)C(F)(F)F [Example 7, 2-[4-methyl-3-[4-(1-methylpyrazolo[3,4-c]pyridin-4-yl)phenyl]-2-oxobenzimidazol-1-yl]-N-[(1S)-2,2,2-trifluoro-1-methylethyl]acetamide] |  |  | A (pIC50>8) | A (pIC50>8)
3 | Cc1cccc2c1n(-c1ccc(-c3cncc4c3cnn4C)cc1)c(=O)n2CC(=O)N1CCC[C@H]1C(F)(F)F [Example 8, 4-methyl-3-[4-(1-methylpyrazolo[3,4-c]pyridin-4-yl)phenyl]-1-[2-oxo-2-[(2S)-2-(trifluoromethyl)pyrrolidin-1-yl]ethyl]benzimidazol-2-one] |  |  | A (pIC50>8) | A (pIC50>8)
4 | Cc1cccc2c1n(-c1ccc(-c3cncc4c3cnn4C)cc1)c(=O)n2CC(=O)N1CCO[C@@H](C(F)(F)F)C1 [Example 10, 4-methyl-3-[4-(1-methypyrazolo[3,4-c]pyridin-4-yl)phenyl]-1-[2-oxo-2-[(2R)-2-(trifluoromethyl)morpholin-4-yl]ethyl]benzimidazol-2-one] | 10 to 100 |  |  | A (pIC50>8)
5 | COc1cccc2c1n(-c1ccc(-c3cncc4c3cnn4C)cc1)c(=O)n2CC(=O)NCC(F)(F)F [Example 12, 2-[4-methoxy-3-[4-(1-methylpyrazolo[3,4-c]pyridin-4-yl)phenyl]-2-oxobenzimidazol-1-yl]-N-(2,2,2-trifluoroethyl)acetamide] |  | 10 to 100 | D (pIC50≤6) | 
6 | Cc1cc(-c2cncc3[nH]ncc23)ccc1-n1c(=O)n(CC(=O)NCC(F)(F)F)c2ccccc21 [Example 14, 2-[3-[2-methyl-4-(1H-pyrazolo[3,4-c]pyridin-4-yl)phenyl]-2-oxobenzimidazol-1-yl]-N-(2,2,2-trifluoroethyl)acetamide] | 100 to 1000 |  |  | A (pIC50>8)
7 | Cn1ncc2c(-c3ccc(-n4c(=O)n(CC(=O)NCC(F)(F)F)c5ccccc54)c(F)c3)cncc21 [Example 15, 2-[3-[2-fluoro-4-(1-methylpyrazolo[3,4-c]pyridin-4-yl)phenyl]-2-oxo-benzimidazol-1-yl]-N-(2,2,2-trifluoroethyl)acetamide] |  | 100 to 1000 | D (pIC50≤6) | 
8 | Cc1cc(-c2cncc3c2cnn3C)ccc1-n1c(=O)n(CC(=O)NCC(F)(F)F)c2cccc(C)c21 [Example 16, 2-[4-methyl-3-[2-methyl-4-(1-methylpyrazolo[3,4-c]pyridin-4-yl)phenyl]-2-oxo-benzimidazol-1-yl]-N-(2,2,2-trifluoroethyl)acetamide] | 100 to 1000 |  |  | A (pIC50>8)
9 | CC(NC(=O)Cn1c(=O)n(-c2ccc(-c3cncc4c3cnn4C)cc2)c2ccccc21)C(F)(F)F (stereo not shown) [Example 17, 2-[3-[4-(1-methylpyrazolo[3,4-c]pyridin-4-yl)phenyl]-2-oxobenzimidazol-1-yl]-N-(2,2,2-trifluoro-1-methylethyl)acetamide] | 100 to 1000 | 10 to 100 |  | 
10 | Cc1cccc2c1n(-c1ccc(-c3cncc4c3cnn4C)cn1)c(=O)n2CC(=O)N1CCO[C@H](C(F)(F)F)C1 [Example 61, 4-methyl-3-[5-(1-methylpyrazolo[3,4-c]pyridin-4-yl)-2-pyridyl]-1-[2-oxo-2-[(2S)-2-(trifluoromethyl)morpholin-4-yl]ethyl]benzimidazol-2-one] | 100 to 1000 |  |  | 

Other lines, results leading:

Row | IC50 [1] [nM] | IC50 [2] [nM] | DDR2 pIC50 [1] | DDR1 pIC50 [2] | SMILES
11 | 100 to 1000 | < 10 |  |  | Cc1cccc2c1n(-c1ccc(-c3cncc4c3cnn4C)nc1)c(=O)n2CC(=O)N1CCOC(C(F)(F)F)C1 (stereo in doubt) [Example 55, 4-methyl-3-[6-(1-methylpyrazolo[3,4-c]pyridin-4-yl)-3-pyridyl]-1-[2-oxo-2-[(2S)-2-trifluoromethyl)morpholin-4-yl]ethyl]benzimidazol-2-one]
12 |  | 10 to 100 | D (pIC50≤6) |  | Cn1ncc2c(-c3ccc(-n4c(=O)n(CC(=O)NCC(F)(F)F)c5ccccc54)cc3)cncc21 [Example 1, 2-[3-[4-(1-methylpyrazolo[3,4-c]pyridin-4-yl)phenyl]-2-oxobenzimidazol-1-yl]-N-(2,2,2-trifluoroethyl)acetamide]
13 | 100 to 1000 |  |  | A (pIC50>8) | Cn1ncc2c(-c3ccc(-n4c(=O)n(CC(=O)N5CCC[C@H]5C(F)(F)F)c5ccccc54)cc3)cncc21 [Example 2, 1-[4-(1-methylpyrazolo[3,4-c]pyridin-4-yl)phenyl]-3-[2-oxo-2-[(2S)-2-(trifluoromethyl)pyrrolidin-1-yl]ethyl]benzimidazol-2-one]
14 |  |  | D (pIC50≤6) | D (pIC50≤6) | Cc1cc(-n2c(=O)n(CC(=O)NCC(F)(F)F)c3ccccc32)ccc1-c1cncc2c1cnn2C [Example 5, 2-[3-[3-methyl-4-(1-methylpyrazolo[3,4-c]pyridin-4-yl)phenyl]-2-oxobenzimidazol-1-yl]-N-(2,2,2-trifluoroethyl)acetamide]
15 | 10 to 100 |  |  | A (pIC50>8) | Cc1cccc2c1n(-c1ccc(-c3cncc4c3cnn4C)cc1)c(=O)n2CC(=O)NCC(F)(F)F [Example 6, 2-[4-methyl-3-[4-(1-methylpyrazolo[3,4-c]pyridin-4-yl)phenyl]-2-oxobenzimidazol-1-yl]-N-(2,2,2-trifluoroethyl)acetamide]
16 | 10 to 100 |  |  | A (pIC50>8) | Cc1cccc2c1n(-c1ccc(-c3cncc4c3cnn4C)cc1)c(=O)n2CC(=O)N1CCOC(C(F)(F)F)C1 (stereo not shown) [Example 9, 4-methyl-3-[4-(1-methylpyrazolo[3,4-c]pyridin-4-yl)phenyl]-1-[2-oxo-2-[2-(trifluoromethyl)morpholin-4-yl]ethyl]benzimidazol-2-one]
17 | 10 to 100 |  |  | A (pIC50>8) | Cn1ncc2c(-c3ccc(-n4c(=O)n(CC(=O)NCC(F)(F)F)c5cccc(Cl)c54)cc3)cncc21 [Example 11, 2-[4-chloro-3-[4-(1-methylpyrazolo[3,4-c]pyridin-4-yl)phenyl]-2-oxobenzimidazol-1-yl]-N-(2,2,2-trifluoroethyl)acetamide]
18 |  | 10 to 100 | D (pIC50≤6) |  | Cc1cc(-c2cncc3c2cnn3C)ccc1-n1c(=O)n(CC(=O)NCC(F)(F)F)c2ccccc21 [Example 13, 2-[3-[2-methyl-4-(1-methylpyrazolo[3,4-c]pyridin-4-yl)phenyl]-2-oxobenzimidazol-1-yl]-N-(2,2,2-trifluoroethyl)acetamide]
19 |  | 10 to 100 |  |  | Cc1cccc2c1n(-c1ccc(-c3cncc4c3cnn4C)cc1)c(=O)n2CC(=O)N1CCC[C@H]1CF [Example 26, 4-methyl-3-[4-(1-methylpyrazolo[3,4-c]pyridin-4-yl)phenyl]-1-[2-oxo-2-[(2S)-2-(fluoromethyl)pyrrolidin-1-yl]ethyl]benzimidazol-2-one]
20 |  | 10 to 100 |  |  | CN(C)c1cccc2c1n(-c1ccc(-c3cncc4c3cnn4C)cc1)c(=O)n2CC(=O)NCC(F)(F)F [Example 80, 2-[4-(dimethylamino)-3-[4-(1-methylpyrazolo[3,4-c]pyridin-4-yl)phenyl]-2-oxo-benzimidazol-1-yl]-N-(2,2,2-trifluoroethyl)acetamide]
